Assay results: patent US5134140A, “Psychotropic benzofuran derivatives” (American Home Products Corporation, priority 1991, dated 1992)
“Also recorded” adds a separate entry of the source. Read-outs that look alike come from different tables or passages of the source.

Assays:
dopamine D2 receptor = target: T1, dopamine D2 receptor (Rattus norvegicus, UniProt P61169); assay: D-2 binding, 3H-spiroperidol, homogenized limbic brain tissue
T1 construct: from tissue; host or cells: homogenized limbic brain tissue
T1 sequence (P61169 whole entry): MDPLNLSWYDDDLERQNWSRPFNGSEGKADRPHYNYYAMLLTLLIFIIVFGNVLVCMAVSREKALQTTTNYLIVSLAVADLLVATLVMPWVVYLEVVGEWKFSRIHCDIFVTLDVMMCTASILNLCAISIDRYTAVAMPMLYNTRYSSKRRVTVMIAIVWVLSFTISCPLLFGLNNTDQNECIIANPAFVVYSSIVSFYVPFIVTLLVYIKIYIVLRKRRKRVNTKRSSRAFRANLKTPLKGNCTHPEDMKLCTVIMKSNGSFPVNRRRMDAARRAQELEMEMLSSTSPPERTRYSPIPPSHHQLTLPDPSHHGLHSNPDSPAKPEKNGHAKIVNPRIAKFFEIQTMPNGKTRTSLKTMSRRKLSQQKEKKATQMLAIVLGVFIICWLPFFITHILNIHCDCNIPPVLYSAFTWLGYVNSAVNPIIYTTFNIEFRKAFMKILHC
Description: Modest affinity for the dopamine D2 receptor was established by the standard experimental test procedure of Fields, et al., Brain Res., 136, 578 (1977) and Yamamura et al., eds., Neurotransmitter Receptor Binding, Raven Press, N.Y. (1978) wherein homogenized limbic brain tissue is incubated with ^3 H-spiroperidol and various concentrations of test compound, filtered and washed and shaken with Hydrofluor scintillation cocktail (National Diagnostics) and counted in a Packard 460 CD scintillation counter.

[1] = target: T2, serotonin 5-HT1A receptor (Rattus norvegicus, UniProt P19327); assay: 5-HT1A binding, displacement of [3H] 8-OHDPAT
T2 construct: following the procedure of Hall et al., J. Neurochem; 44, 1685 (1985); from tissue
T2 sequence (P19327 1-422): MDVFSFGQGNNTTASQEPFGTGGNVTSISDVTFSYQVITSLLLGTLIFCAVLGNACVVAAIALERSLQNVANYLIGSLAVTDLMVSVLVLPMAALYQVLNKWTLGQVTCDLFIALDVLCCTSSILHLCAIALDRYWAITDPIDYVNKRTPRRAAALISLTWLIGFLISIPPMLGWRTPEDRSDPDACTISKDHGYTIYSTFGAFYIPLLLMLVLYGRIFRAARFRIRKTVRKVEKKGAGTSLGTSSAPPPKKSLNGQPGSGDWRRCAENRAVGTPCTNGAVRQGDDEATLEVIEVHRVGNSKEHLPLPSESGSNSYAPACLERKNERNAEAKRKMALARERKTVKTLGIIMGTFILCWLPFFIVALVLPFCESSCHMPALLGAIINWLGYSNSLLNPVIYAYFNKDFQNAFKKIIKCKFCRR
Description: High affinity for the serotonin 5-HT1A receptor was established by testing the claimed compound's ability to displace [^3 H] 8-OHDPAT (dipropylaminotetralin) from the 5-HT1A serotonin receptor following the procedure of Hall et al., J. Neurochem. 44, 1685 (1985). […] The anxiolytic activity of buspirone is believed to be, at least partially, due to its 5-HT1A receptor affinity (Vander Maclen et al., Eur. J. Pharmacol. 1986, 129 (1-2) 133-130).

5-HT1A receptor = settings: cited from earlier work
serotonin syndrome = assay: ability to produce or antagonize the serotonin syndrome in rats; assay type: in vivo, male Sprague-Dawley CD rats; settings: for ED50: Rattus norvegicus
Description: Certain of the compounds of this invention were also compared to buspirone in their ability to either produce or antagonize the serotonin syndrome according to the procedure of Smith and Peroutka, Pharmacol. Biochem. Behav. 24:1513-1519, 1986, in which 250-350 g male Sprague-Dawley CD rats (Charles River) are given either test compound or vehicle and placed individually into plexiglass observation cages. Agonist activity of the compound is determined by scoring for the presence of the serotonin syndrome (forepaw treading, head weaving, tremor, hindlimb abduction, flattened body posture, and Straub tail) during the first 15 minutes after compound administration. Antagonist activity is then determined by a challenge with either of the 5-HT1A agonists 5-methoxy-N,N-dimethyltryptamine (5-MeODMT) or 8-hydroxydipropylaminotetralin.

[2] = target: T2, serotonin 5-HT1A receptor; settings: buspirone standard; cited from earlier work
[3] = antagonist activity, challenge with 5-MeODMT or 8-hydroxydipropylaminotetralin, agonist not specified for these values, read-out: ED50, antagonize the serotonin syndrome

Row | SMILES | inhibition at 0.1 µM [1] | other results
1 | O=C1CC2(CCCC2)CC(=O)N1CCCCNCC1COc2ccccc2O1 (single isomer, unassigned; (-)) [(-)-MDL 72832] | – | binding at the 5-HT1A receptor site relative to the dextrorotary isomer (5-HT1A receptor; (-)-isomer vs dextrorotary isomer): 32 times
2 | COc1cccc2cc(CNCCN3C(=O)C4C5C=CC(C6C=CC65)C4C3=O)oc12 (stereo not shown) [Example 1, 3a, 4,4a, 6a, 7,7a-Hexahydro-2-[2-[[(7-methoxy-2-benzofuranyl)methyl]amino]ethyl]-4,7-etheno-1H-cyclobut[f]isoindole-1,3(2H)-dione] | 31% | –
3 | COc1cccc2cc(CNCCN3C(=O)C4CC(C3=O)C3C4C4C5CC6C4C6C53)oc12 (stereo not shown) [Example 4, Decahydro-3-[2-[[(7-methoxy-2-benzofuranyl)methyl]amino]ethyl]-1,5-methano-6,7,9-metheno-2H-pentaleno[1,2-d]azepine-2,4(3H)-dione] | 59% | inhibition at 1 µM (dopamine D2 receptor): 49%
4 | O=C(NCCNCc1cc2ccc(OCc3ccccc3)cc2o1)C12CC3CC(CC(C3)C1)C2 [Example 12, N-[2-[[(6-Phenylmethoxy-2-benzofuranyl)methyl]amino]ethyl]tricyclo[3.3.1.1^3,7]decane-1-carboxamide] | 20% | –
5 | O=C(NCCNCc1cc2cc(O)ccc2o1)C12CC3CC(CC(C3)C1)C2 [Example 15, N-[2-[[(5-Hydroxy-2-benzofuranyl)methyl]amino]ethyl]tricyclo[3.3.1.1^3,7]decane-1-carboxamide] | 64% | –
6 | O=C(NCCNCc1cc2ccc(O)cc2o1)C12CC3CC(CC(C3)C1)C2 [Example 17, N-[2-[[(6-Hydroxy-2-benzofuranyl)methyl]amino]ethyl]tricyclo[3.3.1.1^3,7]decane-1-carboxamide] | 88% | –
7 | O=C1CC2(CCCC2)CC(=O)N1CCCCNCC1COc2ccccc2O1 (stereo not shown) [MDL 72832, 8-[4-(1,4-benzodioxan-2-ylmethylamino)butyl]-8-azaspiro[4.5]decane-7,9-dione] | – | 5-HT1A receptor ligand character (in words) (5-HT1A receptor): selective and stereospecific
8 | O=C1CC2(CCCC2)CC(=O)N1CCCCN1CCN(c2ncccn2)CC1 [buspirone] | – | affinity for the serotonin 5-HT1A receptor (in words) [2]: high affinity; also recorded: potent affinity; ED50 (serotonin syndrome; 0.25 h, agonist activity, first 15 minutes after administration, read-out: ED50, produced the serotonin syndrome): 7.3 mg/kg; ED50 (serotonin syndrome; antagonist activity, challenge with 5-MeODMT, read-out: ED50, antagonized 5-MeODMT-induced syndrome): 4.6 mg/kg; characterization in the serotonin syndrome test (serotonin syndrome; in words): partial agonist

Second part, led by results:

Row | inhibition at 0.1 µM [1] | SMILES | other results
9 | 87% | COc1cccc2cc(CNCCNC(=O)C34CCC(CC3=O)C4(C)C)oc12 (single isomer, unassigned) [Example 5, N-[2-[[(7-Methoxy-2-benzofuranyl)methyl]amino]ethyl]-7,7-dimethyl-2-oxobicyclo[2.2.1]heptane-1-carboxamide] | inhibition at 1 µM (dopamine D2 receptor): 4%
10 | 100% | COc1cccc2cc(CNCCNC(=O)C34CC5CC(CC(C5)C3)C4)oc12 [Example 2, N-[2-[[(7-Methoxy-2-benzofuranyl)methyl]amino]ethyl]tricyclo[3.3.1.1^3,7]decane-1-carboxamide] | inhibition at 1 µM (dopamine D2 receptor): 29%; IC50 [1]: 0.5 nM; ED50 (serotonin syndrome; [3]): 11.7 mg/kg
11 | 61% | COc1cccc2cc(CNCCN3C(=O)CC4(CCCC4)CC3=O)oc12 [Example 3, 8-[2-[[(7-Methoxy-2-benzofuranyl)methyl]amino]ethyl]-8-azaspiro[4.5]decane-7,9-dione] | inhibition at 1 µM (dopamine D2 receptor): 72%
12 | 87% | COc1cccc2cc(CNCCNC(=O)c3ccc(F)cc3)oc12 [Example 6] | inhibition at 1 µM (dopamine D2 receptor): 70%
13 | 99% | COc1cccc2cc(CNCCNC(=O)C34CC5CC(CC3C5)C4)oc12 [Example 7, N-[2-[[(7-Methoxy-2-benzofuranyl)methyl]amino]ethyl]hexahydro-2,5-methanopentalene-3a(1H)-carboxamide] | ED50 (serotonin syndrome; [3]): 15.4 mg/kg
14 | 92% | COc1cccc2cc(CNCCNC(=O)C3(C)CCCCC3)oc12 [Example 8, N-[2-[[(7-Methoxy-2-benzofuranyl)methyl]amino]ethyl]-1-methyl-1-cyclohexanecarboxamide] | –
15 | 63% | COc1ccc2cc(CNCCNC(=O)C34CC5CC(CC(C5)C3)C4)oc2c1OC [Example 9, N-[2-[[(6,7-Dimethoxy-2-benzofuranyl)methyl]amino]ethyl]tricyclo[3.3.1.1^3,7]decane-1-carboxamide] | –
16 | 90% | COc1cccc2cc(CN(C)CCNC(=O)C34CC5CC(CC(C5)C3)C4)oc12 [Example 10, N-[2-[[(7-Methoxy-2-benzofuranyl)methyl]methylamino]ethyl]tricyclo[3.3.1.1^3,7]decane-1-carboxamide] | IC50 [1]: 9 nM
17 | 38% | COc1cccc2cc(CNCCNC(=O)C(C)(C)C)oc12 [Example 11, N-[2-[[(7-Methoxy-2-benzofuranyl)methyl]amino]ethyl]-2,2-dimethylpropanamid] | –
18 | 95% | O=C(NCCNCc1cc2cccc(F)c2o1)C12CC3CC(CC(C3)C1)C2 [Example 13, N-[2-[[(7-Fluoro-2-benzofuranyl)methyl]amino]ethyl]tricyclo[3.3.1.1^3,7]decane-1-carboxamide] | –
19 | 97% | O=C(NCCNCc1cc2cccc(Cl)c2o1)C12CC3CC(CC(C3)C1)C2 [Example 16, N-[2-[[(7-Chloro-2-benzofuranyl)methyl]amino]ethyl]tricyclo[3.3.1.1^3,7]decane-1-carboxamide] | –
